Results as given in ChEMBL document CHEMBL5653631, “A Potent and Selective ULK1 Inhibitor Suppresses Autophagy and Sensitizes Cancer Cells to Nutrient Stress” (iScience, 2018).

Experiments:
[1] = molecular target: Casein kinase II subunit alpha (Homo sapiens) (UniProt P68400); experiment: Inhibition of human recombinant CK2a1 at 40 nM in presence of ATP by radiometric assay relative to control
[2] = molecular target: Leukocyte tyrosine kinase receptor (Homo sapiens) (UniProt P29376); experiment: Inhibition of human recombinant LTK at 40 nM in presence of ATP by radiometric assay relative to control
[3] = molecular target: Fibroblast growth factor receptor 1 (Homo sapiens) (UniProt P11362); experiment: Inhibition of human recombinant FGFR1 at 40 nM related to control ULK1
[4] = molecular target: T1, Serine/threonine-protein kinase haspin (Homo sapiens) (UniProt Q8TF76); experiment: Inhibition of human recombinant Haspin at 40 nM related to control ULK1
T1 sequence (whole entry): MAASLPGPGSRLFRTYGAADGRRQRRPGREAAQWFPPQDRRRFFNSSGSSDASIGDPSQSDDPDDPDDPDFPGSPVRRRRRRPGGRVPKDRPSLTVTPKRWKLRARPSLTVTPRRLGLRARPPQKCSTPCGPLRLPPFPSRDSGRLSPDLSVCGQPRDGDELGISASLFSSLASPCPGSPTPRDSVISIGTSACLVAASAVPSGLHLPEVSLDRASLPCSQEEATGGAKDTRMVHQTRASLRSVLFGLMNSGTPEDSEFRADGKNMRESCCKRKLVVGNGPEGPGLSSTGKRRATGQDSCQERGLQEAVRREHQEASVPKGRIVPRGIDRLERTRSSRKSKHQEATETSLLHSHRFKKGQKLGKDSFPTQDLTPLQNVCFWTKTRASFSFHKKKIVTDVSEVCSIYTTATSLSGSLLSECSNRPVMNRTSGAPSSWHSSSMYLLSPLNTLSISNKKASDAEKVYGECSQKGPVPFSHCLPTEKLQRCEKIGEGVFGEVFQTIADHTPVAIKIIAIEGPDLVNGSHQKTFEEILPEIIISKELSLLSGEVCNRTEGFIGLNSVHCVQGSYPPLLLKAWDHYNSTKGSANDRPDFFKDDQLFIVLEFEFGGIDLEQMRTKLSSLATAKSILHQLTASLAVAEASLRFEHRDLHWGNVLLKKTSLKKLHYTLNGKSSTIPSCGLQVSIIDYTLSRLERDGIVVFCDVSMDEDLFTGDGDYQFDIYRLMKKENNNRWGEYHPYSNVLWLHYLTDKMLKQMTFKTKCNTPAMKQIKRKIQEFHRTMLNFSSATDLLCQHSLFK

[5] = molecular target: Activin receptor type-2A (Homo sapiens) (UniProt P27037); experiment: Inhibition of human recombinant ACTR2 at 40 nM in presence of ATP by radiometric assay relative to control
[6] = molecular target: G protein-coupled receptor kinase 5 (Homo sapiens) (UniProt P34947); experiment: Inhibition of human recombinant GPRK5 at 15 nM in presence of ATP by radiometric assay relative to control
[7] = molecular target: Tyrosine-protein kinase BTK (Homo sapiens) (UniProt Q06187); experiment: Inhibition of human recombinant BTK at 15 nM related to control ULK1
[8] = molecular target: Epidermal growth factor receptor (Homo sapiens) (UniProt P00533); experiment: Inhibition of human recombinant EGFR at 15 nM related to control ULK1
[9] = molecular target: Casein kinase II subunit alpha' (Homo sapiens) (UniProt P19784); experiment: Inhibition of human recombinant CK2a2 at 500 nM in presence of ATP by radiometric assay relative to control
[10] = molecular target: Mitogen-activated protein kinase 9 (Homo sapiens) (UniProt P45984); experiment: Inhibition of human recombinant JNK2 at 500 nM related to control ULK1
[11] = molecular target: Ribosomal protein S6 kinase alpha-4 (Homo sapiens) (UniProt O75676); experiment: Inhibition of human recombinant MSK2 at 500 nM related to control ULK1
[12] = molecular target: Serine/threonine-protein kinase Nek6 (Homo sapiens) (UniProt Q9HC98); experiment: Inhibition of human recombinant NEK6 at 500 nM related to control ULK1
[13] = molecular target: T2, Serine/threonine-protein kinase PLK4 (Homo sapiens) (UniProt O00444); experiment: Inhibition of human recombinant PLK4 at 500 nM related to control ULK1
T2 sequence (whole entry): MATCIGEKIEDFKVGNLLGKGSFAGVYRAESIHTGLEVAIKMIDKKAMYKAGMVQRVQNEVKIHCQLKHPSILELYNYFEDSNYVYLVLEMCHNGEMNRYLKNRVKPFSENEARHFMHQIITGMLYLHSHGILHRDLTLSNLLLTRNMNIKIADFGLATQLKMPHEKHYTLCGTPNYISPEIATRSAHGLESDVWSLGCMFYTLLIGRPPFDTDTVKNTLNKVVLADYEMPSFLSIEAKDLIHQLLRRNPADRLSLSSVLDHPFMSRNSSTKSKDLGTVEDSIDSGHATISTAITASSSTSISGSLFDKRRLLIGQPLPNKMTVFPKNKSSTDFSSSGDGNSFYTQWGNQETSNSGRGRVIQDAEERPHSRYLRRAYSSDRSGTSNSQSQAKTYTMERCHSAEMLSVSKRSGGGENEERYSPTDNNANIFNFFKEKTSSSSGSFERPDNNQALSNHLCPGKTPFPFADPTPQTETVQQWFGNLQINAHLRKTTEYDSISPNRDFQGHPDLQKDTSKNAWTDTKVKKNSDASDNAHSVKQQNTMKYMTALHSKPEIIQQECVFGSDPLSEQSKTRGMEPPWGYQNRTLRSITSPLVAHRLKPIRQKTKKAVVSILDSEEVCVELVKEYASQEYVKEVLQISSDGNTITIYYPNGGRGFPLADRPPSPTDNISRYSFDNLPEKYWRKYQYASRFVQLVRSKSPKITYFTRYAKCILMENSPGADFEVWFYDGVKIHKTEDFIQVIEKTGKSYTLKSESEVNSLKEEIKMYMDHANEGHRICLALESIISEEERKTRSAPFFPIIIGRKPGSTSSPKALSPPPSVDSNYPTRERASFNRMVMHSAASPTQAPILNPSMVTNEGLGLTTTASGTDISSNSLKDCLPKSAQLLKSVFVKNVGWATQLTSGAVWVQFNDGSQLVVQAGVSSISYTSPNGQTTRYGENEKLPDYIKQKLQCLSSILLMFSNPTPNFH

[14] = molecular target: Serine/threonine-protein kinase D2 (Homo sapiens) (UniProt Q9BZL6); experiment: Inhibition of human recombinant PKD2 at 500 nM in presence of ATP by radiometric assay relative to control

O=C(N[C@@H](C1CC1)C(F)(F)F)c1cc(-c2cnn3cc(-c4ccc(F)cc4)cnc23)cs1
inhibition [1]: 7% | inhibition [2]: 0% | fold change (FC) [3]: 0 | fold change (FC) [4]: 0.01 | inhibition [5]: 1%

CC(C)[C@H](NC(=O)c1cc(-c2cnn3cc(-c4ccc(OCCN5CCCCC5)cc4)cnc23)cs1)C(F)(F)F
inhibition [6]: 0% | fold change (FC) [7]: 0 | fold change (FC) [8]: 0.03

CNC(=O)c1ccccc1Oc1nc(Nc2cc(OC)c(OC)c(OC)c2)ncc1Br
inhibition [9]: 5% | fold change (FC) [10]: 0 | fold change (FC) [11]: 0 | fold change (FC) [12]: 0 | fold change (FC) [13]: 0.62 | inhibition [14]: 12%
